Results reported in paper PMC4664883, “Selective targeting of nuclear receptor FXR by avermectin analogues with therapeutic effects on nonalcoholic fatty liver disease” (Scientific Reports, 2015).

Columns and labels:
[1] = test system: mice; design: method as in PMID 19072826; conditions: cited from earlier work
[2] = test system: FXR A291W mutation; test: Reporter assay with mutated FXR; type: cell-based; conditions: 1 μM, Fig. 8e
[3] = test system: FXR N283L mutation; test: Reporter assay with mutated FXR; type: cell-based; conditions: 1 μM, Fig. 8e
Excerpt: R331M mutation was supposed to strengthen the hydrophobic interactions by displacing the corresponding residue of polar arginine to a hydrophobic methionine (Fig. 8b). Accordingly, this mutation increased the ability to be activated by avermectin ligands (Fig. 8e). For H447F mutation, the corresponding residue of histidine with a side chain of imidazole group was replaced by the nonpolar phenylalanine with a side chain of benzene ring (Fig. 8c). […] N283L mutation disrupts a key hydrogen bond between FXR and avermectin compounds (Fig. 8d).

[4] = test system: KK-Ay mice; test: High-fat diet fed KK-Ay mice treated 14 days (liver histology, metabolic parameters, GTT, ITT); type: in vivo; conditions: KK-Ay mice, high-fat diet, i.p. once daily 14 days; avermectin analogues 1.3 mg/kg, GW4064 30 mg/kg
Experimental: To further confirm the lipid accumulation, we performed oil red O staining of the frozen liver sections (Fig. 2c).
10 weeks age KK-Ay mice and C57BL/6J, homozygous FXR deficient (FXR^–/–) mice were maintained under environmentally controlled conditions with free access to standard chow diet and water as described previously. Animal experiments were conducted in the barrier facility of the Laboratory Animal Center, Xiamen University, approved by the Institutional Animal Use and Care Committee of Xiamen University, China, and the methods were carried out in accordance with the approved guidelines. Mice were fed with high fat diet containing 60% fat, 20% protein and 20% carbohydrate (Research Diets, D12492, New Brunswick, USA), and the food intake were measured every second day. […] After 6 h fasting, mice were weighed and sacrificed. Livers were weighed and taken photos, and part of each liver was fixed in 4% paraformaldehyde. Liver histology characterization was analyzed by haematoxylin and eosin (H&E) staining with paraffin-embedded sections by standard procedures. Other tissues were collected and frozen in liquid nitrogen for use, and serums were collected to measure metabolite parameters.
Fresh liver tissues were embedded in optimum cutting temperature compound (OCT) and cryosectioned. The sections were fixed in 4% paraformaldehyde in PBS, and were stained with 0.3% oil red O according to standard procedures.
Mice treated with compounds for 10 days were fasted for 6 h with free access to water. For the glucose tolerance test (GTT), 1 g/kg of glucose was i.p. injected and blood glucose was measured with the Accu-Check Performa (Roche Applied Science, Mannheim, Germany) at 0, 30, 60, 90, 120,150 and 180 min. For the insulin tolerance test (ITT), 1 U/kg of recombinant human insulin (Novolin 30R; Novo Nordisk, Bagsvaerd, Denmark) was i.p. injected, and blood glucose was measured at 0, 30, 60, 120 and 150 min after insulin injection.
Serum glucose was analyzed using glucose oxidase method (Applygen, Beijing, China). Serum cholesterol and triglyceride were analyzed using Cholesterol Assay Kit and Triglyceride Assay Kit (Bioassay Systems, USA), respectively. Liver triglyceride was analyzed using Tissue triglyceride assay kit (Applygen, Beijing, China).

[5] = design: method as in PMID 10956205, PMID 25388536, PMID 19586769; conditions: in rat; cited from earlier work
[6] = test system: mice; design: method as in PMID 21632533; conditions: cited from earlier work
[7] = test system: medaka eleutheroembryo; conditions: cited from earlier work

| SMILES | liver effect of CDCA-rich diet [1] | transcriptional activity of A291W mutated FXR [2] | transcriptional activity of N283L mutated FXR [3] | hepatic lipid / steatosis by H&E staining of liver sections [4] | lipid accumulation by oil red O staining of liver sections [4] | liver morphology (colour) [4] | t1/2 [5] | body weight and fat effect [6] | hepatobiliary toxicity [7] |
| --- | --- | --- | --- | --- | --- | --- | --- | --- | --- |
| C[C@H](CCC(=O)O)[C@H]1CC[C@H]2[C@@H]3[C@H](O)C[C@@H]4C[C@H](O)CC[C@]4(C)[C@H]3CC[C@]12C [CDCA, chenodeoxycholic acid] | induce liver hypertrophy |  |  |  |  |  |  |  |  |
| CC(C)c1onc(-c2c(Cl)cccc2Cl)c1COc1ccc(/C=C/c2cccc(C(=O)O)c2)c(Cl)c1 [GW4064] |  | abolished the transcriptional activity | retained the ability to be activated | slightly reduced the hepatic lipid | slightly reduced the lipid accumulation | a little fresh red | < 1 h | weight gain and fat accumulation | hepatobiliary injury |
